These molecules were tested against GCN2 kinase (Homo sapiens (Human), UniProt Q9P2K8) (assay: GCN2 Enzyme Inhibition Assay (Transcreener ADP2 fluorescence polarization)). Conditions: 280 μM ATP, 200 μM (RS)7 peptide, 4 nM GCN2, 25° C.
Assay type: biochemical
Method in brief: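 Transcreener ADP2 fluorescence polarization detection of ADP from 4 nM GCN2 with (RS)7 substrate in 25 mM Tris-HCl pH 7.5, 50 mM NaCl, 10 mM MgCl2, 1 mM DTT. Compound pre-incubated with enzyme 10 min at 25 °C; reaction started by ATP, run 1 h at 25 °C. IC50 and Ki(app) by tight-binding fit.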

GCN2 kinase, sequence (Q9P2K8 whole entry): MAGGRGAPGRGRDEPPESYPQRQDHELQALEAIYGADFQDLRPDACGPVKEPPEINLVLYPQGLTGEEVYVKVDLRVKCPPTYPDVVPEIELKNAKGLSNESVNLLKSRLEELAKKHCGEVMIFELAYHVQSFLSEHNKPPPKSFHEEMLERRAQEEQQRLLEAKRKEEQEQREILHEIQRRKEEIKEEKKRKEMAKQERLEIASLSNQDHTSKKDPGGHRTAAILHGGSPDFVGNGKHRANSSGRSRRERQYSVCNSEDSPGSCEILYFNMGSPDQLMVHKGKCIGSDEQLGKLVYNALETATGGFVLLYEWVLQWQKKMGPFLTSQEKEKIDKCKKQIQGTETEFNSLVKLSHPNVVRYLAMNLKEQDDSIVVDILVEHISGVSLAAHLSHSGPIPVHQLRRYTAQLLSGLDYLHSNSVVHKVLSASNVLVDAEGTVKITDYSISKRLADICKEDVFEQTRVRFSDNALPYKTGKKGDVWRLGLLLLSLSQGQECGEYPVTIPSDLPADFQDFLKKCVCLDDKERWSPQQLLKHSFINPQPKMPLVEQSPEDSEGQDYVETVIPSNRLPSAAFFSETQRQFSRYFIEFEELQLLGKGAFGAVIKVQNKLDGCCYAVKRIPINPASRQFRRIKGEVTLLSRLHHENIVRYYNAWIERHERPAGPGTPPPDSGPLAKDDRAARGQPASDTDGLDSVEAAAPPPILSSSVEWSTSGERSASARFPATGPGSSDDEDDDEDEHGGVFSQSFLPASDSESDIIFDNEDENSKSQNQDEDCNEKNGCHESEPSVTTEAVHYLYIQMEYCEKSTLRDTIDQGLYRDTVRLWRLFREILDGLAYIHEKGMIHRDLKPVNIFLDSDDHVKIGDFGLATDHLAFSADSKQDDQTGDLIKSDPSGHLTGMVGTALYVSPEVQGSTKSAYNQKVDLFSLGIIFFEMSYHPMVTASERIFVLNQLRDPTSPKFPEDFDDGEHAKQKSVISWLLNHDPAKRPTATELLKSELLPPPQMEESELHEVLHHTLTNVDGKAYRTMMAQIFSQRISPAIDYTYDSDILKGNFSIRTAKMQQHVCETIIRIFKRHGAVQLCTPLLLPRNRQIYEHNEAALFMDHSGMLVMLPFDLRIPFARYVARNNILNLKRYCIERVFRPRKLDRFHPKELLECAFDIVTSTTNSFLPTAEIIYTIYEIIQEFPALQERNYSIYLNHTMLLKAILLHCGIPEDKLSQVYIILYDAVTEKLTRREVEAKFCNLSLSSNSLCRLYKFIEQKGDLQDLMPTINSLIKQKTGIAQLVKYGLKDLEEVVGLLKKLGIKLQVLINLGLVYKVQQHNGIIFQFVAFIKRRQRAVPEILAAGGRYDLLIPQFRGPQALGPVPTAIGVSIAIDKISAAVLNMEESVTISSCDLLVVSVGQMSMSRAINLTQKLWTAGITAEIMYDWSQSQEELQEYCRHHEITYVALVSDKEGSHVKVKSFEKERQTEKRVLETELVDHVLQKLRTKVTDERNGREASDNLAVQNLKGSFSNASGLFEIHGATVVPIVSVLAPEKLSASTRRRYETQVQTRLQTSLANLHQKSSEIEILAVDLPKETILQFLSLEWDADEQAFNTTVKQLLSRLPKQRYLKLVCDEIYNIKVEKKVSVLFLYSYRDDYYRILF

| IC50 | SMILES |
| --- | --- |
| 10 to 100 nM | O=C1CCC(C(=O)N2CCN(c3ccnc(-c4cnc5ccc(C(F)(F)F)cn45)n3)CC2c2cn[nH]c2)N1 (centres unmarked) [I-469, 5-(2-(1H-pyrazol-4-yl)-4-(2-(6-(trifluoromethyl)imidazo[1,2-a]pyridin-3-yl)pyrimidin-4-yl)piperazine-1-carbonyl)pyrrolidin-2-one] |
| 100 to 1000 nM | Cc1noc([C@H]2CN(c3ccnc(-c4cnc5ccc(C(F)F)cn45)n3)C[C@@H](C)O2)n1 [I-497, (2R,6R)-4-(2-(6-(difluoromethyl)imidazo[1,2-a]pyridin-3-yl)pyrimidin-4-yl)-2-methyl-6-(3-methyl-1,2,4-oxadiazol-5-yl)morpholine] |
| < 10 nM | NC(=O)C1CC(F)CN(c2ccnc(-c3cnc4ccc(C(F)(F)F)cn34)n2)C1 (centres unmarked) [I-229, 5-fluoro-1-(2-(6-(trifluoromethyl)imidazo[1,2-a]pyridin-3-yl)pyrimidin-4-yl)piperidine-3-carboxamide] |
| 10 to 100 nM | Cc1noc([C@H]2CN(c3ccnc(-c4cnc5ccc(C(F)F)cn45)n3)C[C@@H](C)O2)n1 [I-375, (2R,6R)-4-(2-(6-(difluoromethyl)imidazo[1,2-a]pyridin-3-yl)pyrimidin-4-yl)-2-methyl-6-(3-methyl-1,2,4-oxadiazol-5-yl)morpholine] |
| 100 to 1000 nM | CS(=O)(=O)NCC1C[C@@H]2CC[C@H]1N(c1ccnc(-c3cnc4ccc(C(F)F)cn34)n1)C2 (stereo partly drawn) [I-394, N-(((1R,4S)-2-(2-(6-(difluoromethyl)imidazo[1,2-a]pyridin-3-yl)pyrimidin-4-yl)-2-azabicyclo[2.2.2]octan-6-yl)methyl)methanesulfonamide] |
| 100 to 1000 nM | N[C@H]1C[C@H](O)CN(c2ccnc(-c3cnc4ccc(C(F)(F)F)cn34)n2)C1 [I-239, (3 S,5S)-5-amino-1-(2-(6-(trifluoromethyl)imidazo[1,2-a]pyridin-3-yl)pyrimidin-4-yl)piperidin-3-ol] |
| 100 to 1000 nM | C[C@@H]1CN(c2ccnc(-c3cnc4ccc(C(F)(F)F)cn34)n2)C[C@H](C)N1CC1CCOCC1 [I-462, 3-(4-(cis-3,5-dimethyl-4-((tetrahydro-2H-pyran-4-yl)methyl)piperazin-1-yl)pyrimidin-2-yl)-6-(trifluoromethyl)imidazo[1,2-a]pyridine] |
| 100 to 1000 nM | Cc1nn(C)cc1[C@@H]1C[C@@H](C)CN(c2nccc(-c3cnc4ccc(C(F)(F)F)cn34)n2)C1 [I-140, 3-(2-((3S,5R)-3-(1,3-dimethyl-1H-pyrazol-4-yl)-5-methylpiperidin-1-yl)pyrimidin-4-yl)-6-(trifluoromethyl)imidazo[1,2-a]pyridine] |
| 10 to 100 nM | Cc1nnc(C)n1[C@@H]1C[C@H](C)CN(c2nccc(-c3cnc4ccc(C(F)(F)F)cn34)n2)C1 [I-463, 3-(2-((3R,5S)-3-(3,5-dimethyl-4H-1,2,4-triazol-4-yl)-5-methylpiperidin-1-yl)pyrimidin-4-yl)-6-(trifluoromethyl)imidazo[1,2-a]pyridine] |
| 100 to 1000 nM | C[C@@H]1C[C@@H](N)CN(c2ccnc(-c3cnc4ccc(Cl)cn34)n2)C1 [I-256, (3R,5R)-1-(2-(6-chloroimidazo[1,2-a]pyridin-3-yl)pyrimidin-4-yl)-5-methylpiperidin-3-amine] |
| 10 to 100 nM | CC1(C(N)=O)CCCN(c2ccnc(-c3cnc4ccc(C(F)(F)F)cn34)n2)C1 (centres unmarked) [I-192, 3-methyl-1-(2-(6-(trifluoromethyl)imidazo[1,2-a]pyridin-3-yl)pyrimidin-4-yl)piperidine-3-carboxamide] |
| 100 to 1000 nM | Cc1[nH]ncc1C1N[C@H](C)CN(c2nccc(-c3cnc4ccc(C(F)(F)F)cn34)n2)[C@@H]1C (stereo partly drawn) [I-173, 3-(2-((2R,5R)-2,5-dimethyl-3-(5-methyl-1H-pyrazol-4-yl)piperazin-1-yl)pyrimidin-4-yl)-6-(trifluoromethyl)imidazo[1,2-a]pyridine] |
| 100 to 1000 nM | CC(C)(C)OC(=O)C1(O)CCCN(c2ccnc(-c3cnc4ccc(C(F)(F)F)cn34)n2)C1 (centres unmarked) [I-212, tert-butyl 3-hydroxy-1-(2-(6-(trifluoromethyl)imidazo[1,2-a]pyridin-3-yl)pyrimidin-4-yl)piperidine-3-carboxylate] |
| 10 to 100 nM | O=C([C@H]1C[C@H]1F)N1CCN(c2ccnc(-c3cnc4ccc(C(F)(F)F)cn34)n2)CC1c1cn[nH]c1 (stereo in doubt) [I-485, (2-(1H-pyrazol-4-yl)-4-(2-(6-(trifluoromethyl)imidazo[1,2-a]pyridin-3-yl)pyrimidin-4-yl)piperazin-1-yl)((1R,2R)-2-fluorocyclopropyl)methanone] |
| 10 to 100 nM | Cc1nn(C)cc1[C@H]1CN(c2nccc(-c3cnc4ccc(C(F)(F)F)cn34)n2)C[C@@H](C)O1 [I-158, (2S,6R)-2-(1,3-dimethyl-1H-pyrazol-4-yl)-6-methyl-4-(4-(6-(trifluoromethyl)imidazo[1,2-a]pyridin-3-yl)pyrimidin-2-yl)morpholine] |
| < 10 nM | C[C@H]1[C@@H](C(N)=O)NCCN1c1ccnc(-c2cnc3ccc(C(F)(F)F)cn23)n1 [I-435, (2S,3 S)-3-methyl-4-(2-(6-(trifluoromethyl)imidazo[1,2-a]pyridin-3-yl)pyrimidin-4-yl)piperazine-2-carboxamide] |
| 100 to 1000 nM | Cc1oncc1C(=O)N1CCN(c2ccnc(-c3cnc4ccc(C(F)(F)F)cn34)n2)C[C@@H]1c1cn[nH]c1 [I-549, (S)-(2-(1H-pyrazol-4-yl)-4-(2-(6-(trifluoromethyl)imidazo[1,2-a]pyridin-3-yl)pyrimidin-4-yl)piperazin-1-yl)(5-methylisoxazol-4-yl)methanone] |
| 100 to 1000 nM | NC1CN(c2ccnc(-c3cnc4ccc(Cl)cn34)n2)CC[C@H]1O (stereo in doubt) [I-255, (3R,4R)-3-amino-1-(2-(6-chloroimidazo[1,2-a]pyridin-3-yl)pyrimidin-4-yl)piperidin-4-ol] |
| < 10 nM | CC1CN(c2ccnc(-c3cnc4ccc(Cl)cn34)n2)C(C)C(c2cn[nH]c2)N1 (centres unmarked) [I-122, 6-Chloro-3-(4-(2,5-dimethyl-3-(1H-pyrazol-4-yl)piperazin-1-yl)pyrimidin-2-yl)imidazo[1,2-a]pyridine] |
| 100 to 1000 nM | CC(C)(O)C(=O)N1CCN(c2ccnc(-c3cnc4ccc(C(F)(F)F)cn34)n2)CC1c1cn[nH]c1 (centres unmarked) [I-514, 1-(2-(1H-pyrazol-4-yl)-4-(2-(6-(trifluoromethyl)imidazo[1,2-a]pyridin-3-yl)pyrimidin-4-yl)piperazin-1-yl)-2-hydroxy-2-methylpropan-1-one] |
| 100 to 1000 nM | Cc1nn(C)cc1C(=O)N1CCN(c2ccnc(-c3cnc4ccc(C(F)(F)F)cn34)n2)C[C@@H]1C [I-480, (S)-(1,3-dimethyl-1H-pyrazol-4-yl)(2-methyl-4-(2-(6-(trifluoromethyl)imidazo[1,2-a]pyridin-3-yl)pyrimidin-4-yl)piperazin-1-yl)methanone] |
| 10 to 100 nM | NC(=O)C1CN(c2ccnc(-c3cnc4ccc(Cl)cn34)n2)CCO1 (centres unmarked) [I-163, 4-(2-(6-chloroimidazo[1,2-a]pyridin-3-yl)pyrimidin-4-yl)morpholine-2-carboxamide] |
| 100 to 1000 nM | Cc1nn(C)cc1C(=O)N1CCN(c2ccnc(-c3cnc4ccc(C(F)(F)F)cn34)n2)C[C@H]1C [I-479, (R)-(1,3-dimethyl-1H-pyrazol-4-yl)(2-methyl-4-(2-(6-(trifluoromethyl)imidazo[1,2-a]pyridin-3-yl)pyrimidin-4-yl)piperazin-1-yl)methanone] |
| 100 to 1000 nM | CS(=O)(=O)NCC1NCCN(c2ccnc(-c3cnc4ccc(C(F)F)cn34)n2)C1C(F)(F)F (centres unmarked) [I-496, N-((4-(2-(6-(difluoromethyl)imidazo[1,2-a]pyridin-3-yl)pyrimidin-4-yl)-3-(trifluoromethyl)piperazin-2-yl)methyl)methanesulfonamide] |
| 100 to 1000 nM | C[C@@H]1CN(c2ccnc(-c3cnc4ccc(C(F)(F)F)cn34)n2)C[C@H](C)N1CC(F)(F)F [I-410, 3-(4-(cis-3,5-dimethyl-4-(2,2,2-trifluoroethyl)piperazin-1-yl)pyrimidin-2-yl)-6-(trifluoromethyl)imidazo[1,2-a]pyridine] |
| 100 to 1000 nM | CC(O)C(=O)N[C@H]1C[C@H](O)CN(c2ccnc(-c3cnc4ccc(C(F)(F)F)cn34)n2)C1 (stereo partly drawn) [I-254, 2-hydroxy-N-((3S,5S)-5-hydroxy-1-(2-(6-(trifluoromethyl)imidazo[1,2-a]pyridin-3-yl)pyrimidin-4-yl)piperidin-3-yl)propanamide] |
| 100 to 1000 nM | O=C1NC[C@]12CCCN(c1ccnc(-c3cnc4ccc(C(F)(F)F)cn34)n1)C2 [I-296, (S)-6-(2-(6-(trifluoromethyl)imidazo[1,2-a]pyridin-3-yl)pyrimidin-4-yl)-2,6-diazaspiro[3.5]nonan-1-one] |
| 10 to 100 nM | NC(=O)[C@@H]1CCCN(c2nccc(-c3cnc4ccc(C(F)(F)F)cn34)n2)C1 [I-152, (R)-1-(4-(6-(trifluoromethyl)imidazo[1,2-a]pyridin-3-yl)pyrimidin-2-yl)piperidine-3-carboxamide] |

Same assay, conditions: Ki(app); 280 μM ATP, 200 μM (RS)7 peptide, 4 nM GCN2, 25° C.

| Ki | SMILES |
| --- | --- |
| < 10 nM | FC(F)(F)c1ccc2ncc(-c3nccc(N4CCCC(c5cn[nH]c5)C4)n3)n2c1 (centres unmarked) [I-101, 4-[3-(1H-pyrazol-4-yl)piperidin-1-yl]-2-[6-(trifluoromethyl)imidazo[1,2-a]pyridin-3-yl]pyrimidine] |
| 100 to 1000 nM | CS(C)(=O)=NC1CCCN(c2ccnc(-c3cnc4ccc(Cl)cn34)n2)C1 (centres unmarked) [I-30, ((1-(2-(6-Chloroimidazo[1,2-a]pyridin-3-yl)pyrimidin-4-yl)piperidin-3-yl)imino)dimethyl-λ^6-sulfanone] |
| 10 to 100 nM | Cc1nnc([C@@H]2CN(c3ccnc(-c4cnc5ccc(C(F)(F)F)cn45)n3)C[C@H](C)O2)o1 (relative stereo) [I-93, cis-2-methyl-6-(5-methyl-1,3,4-oxadiazol-2-yl)-4-{2-[6-(trifluoromethyl)imidazo[1,2-a]pyridin-3-yl]pyrimidin-4-yl}morpholine] |
| 10 to 100 nM | Cc1noc([C@@H]2CN(c3ccnc(-c4cnc5ccc(C#N)cn45)n3)C[C@H](C)O2)n1 [I-91, 3-{4-[(2S,6S)-2-methyl-6-(3-methyl-1,2,4-oxadiazol-5-yl)morpholin-4-yl]pyrimidin-2-yl}imidazo[1,2-a]pyridine-6-carbonitrile] |
